What was measured:
Salmonella typhimurium = format: cell-based, Salmonella enterica seovar Typhimurium; settings: sugar in MacConkey medium; BMO 2 g per 100 ml; strains 4, 6, 7
Listeria monocytognes = assay: Growth on MacConkey agar plates (lactose or BMO); format: cell-based, Listeria monocytogenes; settings: sugar in MacConkey medium; BMO 2 g per 100 ml; strain 8
Protocol: (§1) FIGS. 3A-3B illustrate growth of select pathogens on BMO. […] The Lac operon permease can transport BMO trimers and tetramers. […] BMOs were suspended at 1 gr/10 mL of sterile water, 10 N NaOH was added until the pH was 7. The BMO solution was used in a MacConkey medium to generate agar plates.

[1] = test system: E. coli K12 (DH5alpha, lac minus); assay: Growth on MacConkey agar plates (lactose or BMO); format: cell-based; settings: sugar in MacConkey medium; BMO 2 g per 100 ml; strain 2
Protocol: as §1

E. coli K12 = assay: Growth on MacConkey agar plates (lactose or BMO); format: cell-based; settings: sugar in MacConkey medium; BMO 2 g per 100 ml; strain 1
Protocol: as §1

[2] = test system: Salmonella typhimurium+lac operon; assay: Growth on MacConkey agar plates (lactose or BMO); format: cell-based; settings: sugar in MacConkey medium; BMO 2 g per 100 ml; strain 5
Protocol: as §1

Yersinia enterocolitica = assay: Growth on MacConkey agar plates (lactose or BMO); format: cell-based; settings: sugar in MacConkey medium; BMO 2 g per 100 ml; strain 9
Protocol: as §1

E. coli O157:H7 = format: cell-based; settings: sugar in MacConkey medium; BMO 2 g per 100 ml; strain 3
Vibrio cholerae = format: cell-based; settings: sugar in MacConkey medium; BMO 2 g per 100 ml; strains 10, 11

Q: For OC[C@H]1O[C@@H](O[C@H]2[C@H](O)[C@@H](O)C(O)O[C@@H]2CO)[C@H](O)[C@@H](O)[C@H]1O (some centres unmarked) [Lactose], which “growth on MacConkey agar plate” value (Salmonella typhimurium) is on record?
A: The value was “negative”.

Q: What about the “growth on MacConkey agar plate” value (Listeria monocytognes) of the same compound?
A: The value was “negative”.

Q: And the “growth on MacConkey agar plate” value [1]?
A: The value was “negative”.

Q: What about the “growth on MacConkey agar plate (red strikes)” value (“growth … (red strikes)” for short) (E. coli K12) of the same compound?
A: Its value is “growth observed”.

Q: And the “growth … (red strikes)” value [2]?
A: The value was “growth observed”.

Q: What about the “growth on MacConkey agar plate” value (Yersinia enterocolitica) of the same compound?
A: Its value is “negative”.

Q: What about the “growth … (red strikes)” value (E. coli O157:H7) of the same compound?
A: The value was “growth observed”.

Q: What about the “growth on MacConkey agar plate” value (Vibrio cholerae) of the same compound?
A: The value was “negative”.

— patent publication US10918653B2, “Bovine milk oligosaccharides” (The Regents of the University of California, priority 2010, dated 2021)
